Experiment [1] has as its target T1, recombinant human ALK5 (TGF-βR1) protein (Homo sapiens, UniProt P36897).
T1 construct: purchased Life Technologies PR9075A
T1 sequence (P36897 34-503): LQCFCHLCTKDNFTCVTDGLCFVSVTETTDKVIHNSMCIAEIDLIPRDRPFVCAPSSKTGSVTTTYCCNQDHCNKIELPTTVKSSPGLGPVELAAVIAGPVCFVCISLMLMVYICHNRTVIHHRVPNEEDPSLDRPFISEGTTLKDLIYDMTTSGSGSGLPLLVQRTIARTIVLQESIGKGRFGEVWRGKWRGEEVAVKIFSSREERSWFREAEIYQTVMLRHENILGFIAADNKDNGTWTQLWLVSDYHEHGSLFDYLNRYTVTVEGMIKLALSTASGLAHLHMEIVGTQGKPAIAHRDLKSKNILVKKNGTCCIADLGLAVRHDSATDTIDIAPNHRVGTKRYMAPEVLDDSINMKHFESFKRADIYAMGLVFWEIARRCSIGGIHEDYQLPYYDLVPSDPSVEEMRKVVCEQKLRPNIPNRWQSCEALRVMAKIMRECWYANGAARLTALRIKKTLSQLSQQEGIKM
The experiment can be described thus: Biochemical ALK5 (TGF-βR1) assay to measure pKi (LANCE Ultra ULight kinase assay). The settings on record: apparent pKi, converted from pIC50 by Cheng-Prusoff. A digest of the protocol: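 Enzyme was preincubated with compound for 60 min at room temperature, then ATP (added from a 125 μM 5× stock with 2 mM DTT) started a 60 min reaction at 37 °C. EDTA plus Eu-anti-phospho-Topo2α (Thr1342) antibody stopped it; TR-FRET pIC50 values were converted to pKi by Cheng-Prusoff.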

Experiment [2] concerns TGF-β-stimulated SMAD3 phosphorylation in BEAS-2B cells. The experiment can be described thus: Cellular ALK5 potency assay, inhibition of TGF-β stimulated pSMAD3 formation in BEAS-2B cells. Format: cell-based. The settings on record: Homo sapiens, pSMAD3, TGF-β 10 ng/mL, read-out: BEAS2B pIC50 (converted). In a few lines: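 Human lung epithelial BEAS-2B cells were preincubated 1 h at 37 °C with compound in HBSS/HEPES/1% BSA, then stimulated 30 min with 10 ng/mL TGF-β. pSMAD3 in lysates was quantified by AlphaLISA relative to untreated stimulated cells; reported as pIC50.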

Some results are limits rather than exact numbers.

For `Cc1cccc(-c2nccc(Nc3ccnc(Nc4csc(N)c4)n3)n2)n1` [Compound 500, N2-(5-amino-3-thienyl)-N4-[2-(6-methyl-2-pyridyl)pyrimidin-4-yl]pyrimidine-2,4-diamine], in experiment [1], the Ki was 0.398 to 3.16 nM. For the same molecule, in experiment [2], the IC50 was 25.1 to 158 nM.

Regarding `Cc1cccc(-c2nccc(Nc3ccnc(Nc4ccc(CN5CC(N(C)C)C5)cc4)n3)n2)n1` [Compound 501, N2-[4-[[3-(dimethylamino)azetidin-1-yl]methyl]phenyl]-N4-[2-(6-methyl-2-pyridyl)pyrimidin-4-yl]pyrimidine-2,4-diamine], in experiment [1], the Ki was 0.0398 to 0.316 nM. In experiment [2], the IC50 is 25.1 to 158 nM.

In the case of `Cc1cccc(-c2nccc(Nc3ccnc(Nc4ccc(N5CCOCC5)cc4F)n3)n2)n1` [Compound 502, N2-(2-fluoro-4-morpholino-phenyl)-N4-[2-(6-methyl-2-pyridyl)pyrimidin-4-yl]pyrimidine-2,4-diamine], the Ki in experiment [1] was 3.98 to 31.6 nM. For the same molecule, in experiment [2], the IC50 is 25.1 to 158 nM.

Consider `CNCc1ccc(Nc2nccc(Nc3ccnc(-c4cccc(C)n4)n3)n2)cc1` [Compound 503, N2-[4-(methylaminomethyl)phenyl]-N4-[2-(6-methyl-2-pyridyl)pyrimidin-4-yl]pyrimidine-2,4-diamine], for which the Ki in experiment [1] is ≤ 0.0316 nM. Also, the IC50 in experiment [2] was 25.1 to 158 nM.

`Cc1cccc(-c2nccc(Nc3ccnc(Nc4csc(C(=O)O[C@@H]5CCN(C)C5)c4)n3)n2)n1` [Compound 504, [(3R)-1-methylpyrrolidin-3-yl] 4-[[4-[[2-(6-methyl-2-pyridyl)pyrimidin-4-yl]amino]pyrimidin-2-yl]amino]thiophene-2-carboxylate]: the Ki in experiment [1] is 0.0398 to 0.316 nM. Also, the IC50 in experiment [2] was 25.1 to 158 nM.

On to `Cc1cccc(-c2nccc(Nc3ccnc(Nc4cccc(C(=O)N5CCNCC5)c4)n3)n2)n1` [Compound 505, [3-[[4-[[2-(6-methyl-2-pyridyl)pyrimidin-4-yl]amino]pyrimidin-2-yl]amino]phenyl]-piperazin-1-yl-methanone], for which the Ki in experiment [1] is 0.398 to 3.16 nM. Further, in experiment [2], the IC50 was 25.1 to 158 nM.

For `Cc1cccc(-c2nccc(Nc3ccnc(Nc4ccc(C(=O)O[C@H]5CCN(C)C5)s4)n3)n2)n1` [Compound 507, [(3S)-1-methylpyrrolidin-3-yl] 5-[[4-[[2-(6-methyl-2-pyridyl)pyrimidin-4-yl]amino]pyrimidin-2-yl]amino]thiophene-2-carboxylate], the Ki in experiment [1] is 0.0398 to 0.316 nM. Besides, the IC50 in experiment [2] was 25.1 to 158 nM.

As for `Cc1cccc(-c2nccc(Nc3ccnc(Nc4nc(CN5CCC[C@@H](C(=O)O[C@H]6CCN(C)C6)C5)cs4)n3)n2)n1` [Compound 508, (S)-1-methylpyrrolidin-3-yl (R)-1-((2-((4-((2-(6-methylpyridin-2-yl)pyrimidin-4-yl)amino)pyrimidin-2-yl)amino)thiazol-4-yl)methyl)piperidine-3-carboxylate], the Ki in experiment [1] was 0.398 to 3.16 nM. In addition, the IC50 in experiment [2] is 25.1 to 158 nM.

With `Cc1cccc(-c2nccc(Nc3ccnc(Nc4cccc(NC(=O)N5CCN(C)CC5)c4)n3)n2)n1` [Compound 509, 4-methyl-N-[3-[[4-[[2-(6-methyl-2-pyridyl)pyrimidin-4-yl]amino]pyrimidin-2-yl]amino]phenyl]piperazine-1-carboxamide], the Ki in experiment [1] was 0.0398 to 0.316 nM. In experiment [2], the IC50 is 25.1 to 158 nM.

For the molecule `Cc1cccc(-c2nccc(Nc3ccnc(Nc4nc(C(=O)N5CCNCC5)cs4)n3)n2)n1` [Compound 510, [2-[[4-[[2-(6-methyl-2-pyridyl)pyrimidin-4-yl]amino]pyrimidin-2-yl]amino]thiazol-4-yl]-piperazin-1-yl-methanone], the Ki in experiment [1] was 0.0398 to 0.316 nM. The IC50 in experiment [2] is 25.1 to 158 nM.

In the case of `COc1cc(Nc2nccc(Nc3ccnc(-c4cccc(C)n4)n3)n2)ccc1NC(=O)C1CCNCC1` [Compound 511, N-[2-methoxy-4-[[4-[[2-(6-methyl-2-pyridyl)pyrimidin-4-yl]amino]pyrimidin-2-yl]amino]phenyl]piperidine-4-carboxamide], in experiment [1], the Ki is 0.398 to 3.16 nM. The IC50 in experiment [2] was 25.1 to 158 nM.

`Cc1cccc(-c2nccc(Nc3ccnc(Nc4ccc5[nH]nnc5c4)n3)n2)n1` [Compound 512, N2-(1H-benzotriazol-5-yl)-N4-[2-(6-methyl-2-pyridyl)pyrimidin-4-yl]pyrimidine-2,4-diamine]: in experiment [1], the Ki was 0.398 to 3.16 nM. Besides, in experiment [2], the IC50 is 25.1 to 158 nM.

For `Cc1cccc(-c2nccc(Nc3ccnc(Nc4ccc(COCCO)cc4)n3)n2)n1` [Compound 513, 2-[[4-[[4-[[2-(6-methyl-2-pyridyl)pyrimidin-4-yl]amino]pyrimidin-2-yl]amino]phenyl]methoxy] ethanol], in experiment [1], the Ki was 0.398 to 3.16 nM. The IC50 in experiment [2] was 25.1 to 158 nM.

In the case of `Cc1cccc(-c2nccc(Nc3ccnc(Nc4ccc(N)c(C)c4)n3)n2)n1` [Compound 514, N2-(4-amino-3-methyl-phenyl)-N4-[2-(6-methyl-2-pyridyl)pyrimidin-4-yl]pyrimidine-2,4-diamine], the Ki in experiment [1] was 0.398 to 3.16 nM. In experiment [2], the IC50 is ≤ 20 nM.

Turning to `Cc1cccc(-c2nccc(Nc3ccnc(Nc4ccc(N5CCNCC5)c(C)c4)n3)n2)n1` [Compound 515, N2-(3-methyl-4-piperazin-1-yl-phenyl)-N4-[2-(6-methyl-2-pyridyl)pyrimidin-4-yl]pyrimidine-2,4-diamine], the Ki in experiment [1] is 0.0398 to 0.316 nM. Further, in experiment [2], the IC50 was 25.1 to 158 nM.

`COC(=O)C1CCCN(Cc2ccc(Nc3nccc(Nc4ccnc(-c5cccc(C)n5)n4)n3)cc2)C1` (stereo not drawn) [Compound 516, methyl 1-[[4-[[4-[[2-(6-methyl-2-pyridyl)pyrimidin-4-yl]amino]pyrimidin-2-yl]amino]phenyl]methyl] piperidine-3-carboxylate]: the Ki in experiment [1] is 0.0398 to 0.316 nM. The IC50 in experiment [2] is 25.1 to 158 nM.

Take `COC(=O)CCc1ccc(Nc2nccc(Nc3ccnc(-c4cccc(C)n4)n3)n2)cc1` [Compound 517, methyl 3-[4-[[4-[[2-(6-methyl-2-pyridyl)pyrimidin-4-yl]amino]pyrimidin-2-yl]amino]phenyl]propanoate]: the Ki in experiment [1] is 0.398 to 3.16 nM. The IC50 in experiment [2] is 200 to 1260 nM.

In the case of `Cc1cccc(-c2nccc(Nc3ccnc(Nc4ccc(CN5CCC(C(=O)OCC6CNC6)C5)cc4)n3)n2)n1` (stereo not drawn) [Compound 518, azetidin-3-ylmethyl 1-[[4-[[4-[[2-(6-methyl-2-pyridyl)pyrimidin-4-yl]amino]pyrimidin-2-yl]amino]phenyl]methyl] pyrrolidine-3-carboxylate], the Ki in experiment [1] was 0.0398 to 0.316 nM. Also, the IC50 in experiment [2] was 25.1 to 158 nM.

As to `Cc1cccc(-c2nccc(Nc3ccnc(Nc4cccc(CN5C[C@@H](C)N[C@@H](C)C5)c4)n3)n2)n1` [Compound 519, N4-[2-(6-methyl-2-pyridyl)pyrimidin-4-yl]-N2-[3-[[rac-(3R,5S)-3,5-dimethylpiperazin-1-yl]methyl]phenyl]pyrimidine-2,4-diamine], the Ki in experiment [1] is 0.0398 to 0.316 nM. The IC50 in experiment [2] is 25.1 to 158 nM.

As for `Cc1cccc(-c2nccc(Nc3ccnc(Nc4nc(C(=O)NC5(CO)CCNC5)cs4)n3)n2)n1` (stereo not drawn) [Compound 520, N-[3-(hydroxymethyl)pyrrolidin-3-yl]-2-[[4-[[2-(6-methyl-2-pyridyl)pyrimidin-4-yl]amino]pyrimidin-2-yl]amino]thiazole-4-carboxamide], the Ki in experiment [1] is 0.0398 to 0.316 nM. Further, the IC50 in experiment [2] was 25.1 to 158 nM.

Turning to `Cc1cccc(-c2nccc(Nc3ccnc(Nc4cccc(CN5CCN(C)CC5)c4)n3)n2)n1` [Compound 521, N2-[3-[(4-methylpiperazin-1-yl)methyl]phenyl]-N4-[2-(6-methyl-2-pyridyl)pyrimidin-4-yl]pyrimidine-2,4-diamine], in experiment [1], the Ki was 0.0398 to 0.316 nM. The IC50 in experiment [2] is 25.1 to 158 nM.

Regarding `Cc1cccc(-c2nccc(Nc3ccnc(Nc4cc(C(=O)O[C@@H]5CCN(C)C5)cs4)n3)n2)n1` [Compound 522, [(3R)-1-methylpyrrolidin-3-yl] 5-[[4-[[2-(6-methyl-2-pyridyl)pyrimidin-4-yl]amino]pyrimidin-2-yl]amino]thiophene-3-carboxylate], the Ki in experiment [1] is 0.0398 to 0.316 nM. In experiment [2], the IC50 was 25.1 to 158 nM.

For `Cc1cccc(-c2nccc(Nc3ccnc(Nc4ccc(CN5CCNC(C(=O)OCC(C)C)C5)cc4)n3)n2)n1` (stereo not drawn) [Compound 523, isobutyl 4-[[4-[[4-[[2-(6-methyl-2-pyridyl)pyrimidin-4-yl]amino]pyrimidin-2-yl]amino]phenyl]methyl] piperazine-2-carboxylate], the Ki in experiment [1] is 0.0398 to 0.316 nM. Moreover, the IC50 in experiment [2] is ≤ 20 nM.

Regarding `Cc1cccc(-c2nccc(Nc3ccnc(Nc4ccc5c(c4)CC(N)C5)n3)n2)n1` (stereo not drawn) [Compound 524, N2-(2-aminoindan-5-yl)-N4-[2-(6-methyl-2-pyridyl)pyrimidin-4-yl]pyrimidine-2,4-diamine], the Ki in experiment [1] was 0.0398 to 0.316 nM. Also, the IC50 in experiment [2] is 25.1 to 158 nM.
